Reference: ChEMBL document CHEMBL4052639, “2-Isocyano glucose used in Ugi four-component reaction: An approach to enhance inhibitory effect against DNA oxidation” (Eur J Med Chem, 2017)
Activity calls are given as the source filed them. No cut-off for these calls is given here.

Tests used:
Assay type in all cases: functional
[1] = Antioxidant activity assessed as reduction in AAPH-induced DNA oxidation up to 400 uM measured every 2 hrs by TBARS assay
[2] = Antioxidant activity assessed as reduction in Cu2+/GSH-induced DNA oxidation by measuring TBARS level at 400 uM after 90 mins relative to control; parameters: scale not given: the % may be the effect or the level left
[3] = Antioxidant activity assessed as reduction in hydroxyl radical-induced DNA oxidation by measuring TBARS level at 400 uM after 90 mins relative to control; parameters: scale not given: the % may be the effect or the level left

Q: For `O=C(O)c1cc(O)c(O)c(O)c1`, which Activity [1] is on record?
A: Active

Q: Which Activity [1] does the source give for `COc1cc(/C=C/C(=O)O)ccc1O` here?
A: Active

Q: What does the source list for `O=C(CN(C(=O)c1cc(O)c(O)c(O)c1)c1ccccc1)NC1CCCCC1`?
A: Activity [1]: Active; Activity [2]: 97.1%; Activity [3]: 97.1%

Q: Which Activity [1] does the source give for `O=C(CN(C(=O)c1cc(O)c(O)c(O)c1)c1ccc(O)cc1)N[C@@H]1[C@@H](O)[C@H](O)[C@@H](CO)O[C@H]1O` here?
A: Active

Q: What about the Activity [2] of the same compound?
A: 91%

Q: And the Activity [3]?
A: 91.8%

Q: Which Activity [1] does the source give for `O=C(CN(C(=O)c1ccccc1)c1ccccc1)N[C@@H]1[C@@H](O)[C@H](O)[C@@H](CO)O[C@H]1O` here?
A: inactive

Q: What about the Activity [2] of the same compound?
A: 99.3%

Q: What about the Activity [3] of the same compound?
A: 100%

Q: For `O=C(CN(C(=O)c1ccccc1)c1ccc(O)cc1)N[C@@H]1[C@@H](O)[C@H](O)[C@@H](CO)O[C@H]1O`, which Activity [1] is on record?
A: Active

Q: And the Activity [2]?
A: 96.7%

Q: And the Activity [3]?
A: 98.3%

Q: With `O=C(CN(C(=O)c1cc(O)c(O)c(O)c1)c1ccccc1)N[C@@H]1[C@@H](O)[C@H](O)[C@@H](CO)O[C@H]1O` as the compound, how does the Activity [1] read?
A: Active

Q: What about the Activity [2] of the same compound?
A: 90.1%

Q: And the Activity [3]?
A: 92.7%

Q: Which results are given for `O=C(CN(C(=O)c1ccc(O)cc1)c1ccc(O)cc1)N[C@@H]1[C@@H](O)[C@H](O)[C@@H](CO)O[C@H]1O`?
A: Activity [1]: Active; Activity [2]: 95%; Activity [3]: 94.9%

Q: With `O=C(CN(Cc1ccccc1)C(=O)/C=C/c1ccc(O)c(O)c1)N[C@@H]1[C@@H](O)[C@H](O)[C@@H](CO)O[C@H]1O` as the compound, how does the Activity [1] read?
A: Active

Q: And the Activity [2]?
A: 94.6%

Q: What about the Activity [3] of the same compound?
A: 93.7%

Q: With `O=C(CN(C(=O)c1cc(O)c(O)c(O)c1)c1ccccc1)NCCc1c[nH]c2ccccc12` as the compound, how does the Activity [1] read?
A: Active

Q: And the Activity [2]?
A: 96.2%

Q: What about the Activity [3] of the same compound?
A: 93.8%

Q: With `COc1cc(/C=C/C(=O)N(CC(=O)N[C@@H]2[C@@H](O)[C@H](O)[C@@H](CO)O[C@H]2O)Cc2ccccc2)ccc1O` as the compound, how does the Activity [1] read?
A: Active

Q: What about the Activity [2] of the same compound?
A: 92.8%

Q: What about the Activity [3] of the same compound?
A: 94.7%

Q: Which Activity [1] does the source give for `O=C(CN(C(=O)c1ccc(O)cc1)c1ccccc1)N[C@@H]1[C@@H](O)[C@H](O)[C@@H](CO)O[C@H]1O` here?
A: Active

Q: And the Activity [2]?
A: 97.8%

Q: And the Activity [3]?
A: 96.5%

Q: With `O=C(O)/C=C/c1ccc(O)c(O)c1` as the compound, how does the Activity [1] read?
A: Active

Q: Which Activity [1] does the source give for `O=C(CN(C(=O)c1cc(O)c(O)c(O)c1)c1ccccc1)NC12CC3CC(CC(C3)C1)C2` here?
A: Active

Q: And the Activity [2]?
A: 93.6%

Q: And the Activity [3]?
A: 95.6%

Q: Which Activity [1] does the source give for `O=C(O)c1ccc(O)cc1` here?
A: Active
